Assay results as given in patent EP0530016B1, “Piperidine derivative and pharmaceutical composition containing it” (Ajinomoto Co., Inc., priority 1991, dated 1993).

Tests used:
[1] = test system: platelet aggregation induced by a combination of ADP and serotonin; assay: Inhibition of the increased platelet aggregation caused by serotonin in platelet rich plasma; format: cell-based; conditions: Oryctolagus cuniculus; rabbit platelet rich plasma; ADP (1.5»M) and serotonin (5»M); 50% inhibition of the increased platelet aggregation caused by serotonin
Method: Blood was obtained from rabbit and was treated with 3.8% sodium citrate. Platelet rich plasma (PRP) was prepared by centrifugation at 1200 rpm for 10 min at room temperature. The platelet aggregation induced by adenosine diphosphate (ADP) (1.5»M) and by a combination of ADP (1.5»M) and serotonin (5»M) was measured. Then the concentration of piperidine derivative required to produce 50% inhibition of the increased platelet aggregation caused by serotonin compared with the control was calculated as IC50.

[2] = test system: spontaneously hypertensive rats; assay: Antihypertensive effect after oral administration, tail-cuff systolic blood pressure; format: in vivo; conditions: dose 6 mg/kg, reduction in systolic blood pressure from basal values, male spontaneously hypertensive rats; for dSBP (mmHg) 2hr: 2hr after administration; for dSBP (mmHg) 6hr: 6hr after administration
Method: Four male spontaneously hypertensive rats (body weight 400-440g) and in which hypertension was confirmed were used. These were obtained from Charles River Japan (Kanagawa, Japan and were maintained in a pathogen free state until used.
A 5% arabic gum aqueous suspension of each sample was administered orally in a dose of 1ml per kg body weight. Systolic blood pressure after administration was measured by an indirect (tail-cuff) method. Antihypertensive effect was shown as a reduction in blood pressure (mmHg) from the basal values.

[3] = test system: spontaneously hypertensive rats; assay: Antihypertensive effect after intravenous bolus injection, tail-cuff systolic blood pressure; format: in vivo; conditions: dose 10 mg/kg, reduction in systolic blood pressure from basal values, male spontaneously hypertensive rats
Method: Two male spontaneously hypertensive rats (body weight 400-440g) and in which hypertension was confirmed were used as test animals. These were obtained from Charles River Japan (Kanagawa, Japan) and were maintained in a pathogen free state until used.
An aqueous solution of the derivative prepared in Example 1 above in physiological saline containing 2.5% Nicolle TM and 2.5% ethanol was intravenously administered by bolus injection in a does of 1ml per 1 kg body weight. Systolic blood pressure (SBP) after administration was measured by an indirect (tail-cuff) method. The antihypertensive effect was shown as a reduction in blood pressure (mmHg) from the basal values.

IC50 [1] [nM]	SMILES	dSBP (mmHg) 2hr [2] [mmHg]	dSBP (mmHg) 6hr [2] [mmHg]	dSBP (mmHg) 0.5hr ([3]; 0.5hr after administration) [mmHg]	dSBP (mmHg) 4hr ([3]; 4hr after administration) [mmHg]
200	NS(=O)(=O)c1ccc(C=CCN2CCC(=C3c4ccccc4C=Cc4ccccc43)CC2)cc1 [Example 1, 1-(4-Aminosulfonylcinnamyl)-4-(5H-dibenzo[a,d]cyclohepten-5-ylidene)piperidine]	-37	-48	-83	-95
251	NS(=O)(=O)c1ccc(C=CCN2CCC(=C3c4ccccc4CSc4ccccc43)CC2)cc1 [Example 2, 11-[1-(4-Aminosulfonylcinnamyl)-4-piperidinylidene]-6,11-dihydrodibenzo[b,e]thiepin]	-31	-43	–	–
